Measurements as given in PubChem BioAssay (NCI).
Several values for one entry are separate records, joined by “and”; a condition that tells them apart may be missing. Equal values may be shown once.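 The compound was tested at five concentrations on cells cultured in 96-well plates, with a 48-hour exposure period. GI50 = concentration required for 50% inhibition of growth. At the TGI there is no net growth.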

Tests used:
Assay in all cases: NCI-60 cell line screen, 48 h
[1] = test system: COLO 205 colon
[2] = test system: HOP-62 NSCLC
[3] = test system: OVCAR-3 ovarian
[4] = test system: OVCAR-5 ovarian
[5] = test system: SF-268 CNS
[6] = test system: SK-MEL-28 melanoma
[7] = test system: SK-MEL-5 melanoma
[8] = test system: SW-620 colon
[9] = test system: TK-10 renal
[10] = test system: UO-31 renal

SMILES | TGI [1] | TGI [2] | TGI [3] | TGI [4] | TGI [5] | TGI [6] | TGI [7] | TGI [8] | TGI [9] | TGI [10] | GI50 [1] | GI50 [2] | GI50 [4] | GI50 [7] | GI50 [3] | GI50 [5] | GI50 [6] | GI50 [8] | GI50 [9] | GI50 [10]
Cc1[nH]c(=O)[nH]c(=S)c1C(=O)Nc1cccc2cc3ccccc3cc12 | > 100 µM | > 100 µM | > 100 µM | > 100 µM | > 100 µM | > 100 µM | > 100 µM | > 100 µM | > 100 µM | > 100 µM |  |  |  |  |  |  |  |  |  | 
COC1(OC)c2no[n+]([O-])c2C(OC)(OC)c2c1no[n+]2[O-] | 28.5 µM | 35.8 µM | 28.3 µM | 43.6 µM | 73.3 µM | 32.1 µM | 28.6 µM | 35.8 µM | 31.5 µM | > 100 µM |  |  |  |  |  |  |  |  |  | 
O=C1C=CC(=O)c2c(O)c(N3CCN(CCOCCO)CC3)c(Cl)c(O)c21 |  | 3.84 µM and 3.6 µM and 6.67 µM | 2.14 µM [middle of 4 runs] | 3.32 µM [middle of 4 runs] |  | 2.89 µM [middle of 4 runs] | 1.81 µM [middle of 4 runs] |  | 1.56 µM [middle of 4 runs] |  | 156 nM [middle of 4 runs] | 2070 nM and 983 nM and 2640 nM | 1.26 µM | 688 nM [middle of 4 runs] |  |  |  |  |  | 
COc1ccc2nc3n(c2c1)CCc1cc(OC)c(OC)cc1-3 | 90.8 µM | > 100 µM | > 100 µM | > 100 µM | > 100 µM | > 100 µM | 47.2 µM | > 100 µM | > 100 µM |  |  |  |  |  |  |  |  |  |  | 
CCC(CC(C)C)Nc1ccc(NC(CC)CC(C)C)cc1 (stereo not drawn) | 23 µM | 33.3 µM | 26 µM | 29.1 µM | 30.6 µM | 28.1 µM | 28.2 µM | 30.1 µM | 32.3 µM | 29.3 µM | 11 µM | 18600 nM | 15.6 µM | 15 µM | 13.3 µM | 16 µM | 13.7 µM | 15.6 µM | 17.7 µM | 14.8 µM
C#CCC1(C(=O)OCC)C(=O)c2ccccc2N(C)C1=O (stereo not drawn) | > 100 µM |  | > 100 µM |  | > 100 µM | > 100 µM | > 100 µM | > 100 µM | > 100 µM | > 100 µM |  |  |  |  |  |  |  |  |  | 
CC1OC2OC3C(OCC(O)C3O)OC(=O)[C@]34CCC(C)(C)CC3C3=CCC5[C@@]6(C)C[C@H](O)[C@H](OC7OC(CO)C(O)C(O)C7OC7OCC(OC(=O)CC(C)(O)CC(=O)OC1C(OC1OC(CO)C(O)C(O)C1O)C2O)C(O)C7O)[C@@](C)(CO)C6CC[C@@]5(C)[C@]3(C)CC4 (stereo partly drawn) | 7.61 µM | 8.75 µM | 19.3 µM | 18.9 µM | 22.2 µM | 6.22 µM | 28.8 µM | 20.3 µM | 21.1 µM | 14.9 µM |  |  |  |  |  |  |  |  |  | 
NCCC1CN(C(=O)OCc2ccccc2)c2ccccc21 (stereo not drawn) | 31.5 µM | > 54.4 µM | 45.6 µM | 45.4 µM | 39.4 µM | 36 µM | 24.7 µM | 25.4 µM | > 54.8 µM | 27.3 µM |  |  |  |  |  |  |  |  |  | 
COC(=O)C1=C(O)C(C(=O)OC)[C@]2(O)[C@H](C(=O)OC)[C@H]1C[C@@H](c1ccc([N+](=O)[O-])cc1)[C@H]2C(=O)OC (stereo partly drawn) | 65.2 µM | > 100 µM | > 100 µM | 65.9 µM | 51.6 µM | 50.9 µM | 30 µM | 58.4 µM | > 100 µM |  |  |  |  |  |  |  |  |  |  | 
CCN(CC)c1nc(N(C)C)c2ccccc2n1 | 83.3 µM | > 100 µM |  | > 100 µM | > 100 µM | > 100 µM | 35 µM | > 100 µM | > 100 µM | 85.1 µM |  |  |  |  |  |  |  |  |  | 
C=C(C)[C@@H]1CC[C@]2(C(=O)O)CC[C@]3(C)[C@H](CCC4[C@@]5(C)CC[C@H](C(=O)/C=C/c6ccc(O)c(O)c6)C(C)(C)[C@@H]5CC[C@]43C)[C@@H]12 (stereo partly drawn) | 13.8 µM | 17 µM | 22.5 µM | 26.7 µM | > 100 µM |  | 18.8 µM |  | 39.9 µM | 12.9 µM |  |  |  |  |  |  |  |  |  | 
Cc1ccc(-c2n[nH]c(=O)n2/N=C\c2ccccc2)cc1 | > 100 µM | 62.1 µM | > 100 µM | > 100 µM | > 89.1 µM | > 100 µM | > 100 µM | > 100 µM | > 100 µM | > 100 µM |  |  |  |  |  |  |  |  |  | 
COC(=O)c1c(C)nc(C)c(NO)c1-c1ccccc1C(F)(F)F | 70.2 µM | > 100 µM | 30.3 µM | > 100 µM | > 100 µM | 38.1 µM | > 100 µM | 30.2 µM | 37.4 µM | 74.2 µM |  |  |  |  |  |  |  |  |  | 
O=C1C=CC(=O)c2c(Cl)ccc(O)c21 | 25.8 µM | > 100 µM | 29.1 µM | > 89.3 µM | 33.4 µM | 33 µM | 33.1 µM | 31.4 µM |  | > 100 µM |  |  |  |  |  |  |  |  |  | 
N/C(=N\Nc1ccc(S(N)(=O)=O)cc1)c1cnccn1 | > 100 µM | > 100 µM | > 100 µM | > 100 µM | > 100 µM | > 100 µM | > 100 µM | > 100 µM | > 100 µM | > 100 µM |  |  |  |  |  |  |  |  |  | 
CC(C)OC1OC(CO)C(O)CC1n1cc(F)c(=O)[nH]c1=O (stereo not drawn) | > 100 µM |  | > 100 µM | > 100 µM | > 100 µM | > 100 µM | > 100 µM | > 100 µM | > 100 µM | > 100 µM |  |  |  |  |  |  |  |  |  | 
O=C1c2ccccc2-c2[nH]c3cn[nH]c(=O)c3c21 | > 100 µM | > 100 µM | > 100 µM | > 100 µM | > 100 µM |  | > 100 µM | > 100 µM | > 100 µM | > 100 µM |  |  |  |  |  |  |  |  |  | 
C/C(=N\Nc1nc2ccccc2[nH]1)c1cc2ccccc2cn1 |  |  | 0.911 µM | 2.5 µM | 1.02 µM | 0.429 µM | 1.6 µM | 1.65 µM | 5.16 µM | 1.38 µM |  |  |  |  |  |  |  |  |  | 
C(/Cc1ccc2c(c1)OCO2)=N\NC1=NCCCN1 | > 100 µM | > 100 µM | > 100 µM | > 100 µM | > 100 µM | > 100 µM | 56.4 µM | > 100 µM | > 100 µM | > 100 µM |  |  |  |  |  |  |  |  |  | 
COC(=O)c1c(-c2ccc(Cl)cc2)cc2c3ccccc3n(C)c2c1C(=O)OC | > 100 µM | > 100 µM | > 100 µM | > 100 µM | > 100 µM | > 100 µM | > 100 µM | > 100 µM | > 100 µM | > 100 µM |  |  |  |  |  |  |  |  |  | 
